This is an account of results in US5620676A, “Biologically active ATP analogs” (priority 1995, dated 1997).

The target of assay [1] is T1, P2Y receptor (turkey erythrocyte membranes) (Meleagris gallopavo, UniProt P49652).
T1 construct: from tissue; host or cells: washed turkey erythrocytes, ghosts prepared by hypotonic lysis
In words: Stimulation of phospholipase C (inositol phosphate formation) in turkey erythrocyte membranes. Format: biochemical. Conditions: for EC50 / activity/potency in words, turkey erythrocyte: turkey erythrocyte membranes. How it is done: Phospholipase C activity: Stimulation of inositol phosphate formation by compounds of the present invention was measured in turkey erythrocyte membranes as described by Harden et al., supra and Boyer et al., supra. The K0.5 values were averaged from 3-8 independently determined dose-response curves for each compound. Briefly, one ml of washed turkey erythrocytes was incubated in inositol-free medium (DMEM; Gibco) with 0.5-1 mCi of 2-[^3 H]myoinositol (20 Ci/mmol; American Radiolabeled Chemicals Inc., St. Louis, Mo.)for 18-24 h in a humidified atmosphere of 95% air 5% CO2 at 37° C. Erythrocyte ghosts were prepared by rapid lysis in hypotonic buffer (5 mM sodium phosphate, pH 7.4, 5 mM MgCl2, 1 mM EGTA) as described by Boyer et al., supra. Phospholipase C activity was measured in 25 μl of [^3 H]inositol-labeled ghosts (≈175 μg of protein, 200-500,000 cpm/assay) in a medium containing 424 μM CaC12, 0.91 mM MgSO4, 2 mM EGTA, 115 mM KCl, 5 mM KH2 PO4, and 10 mM Hepes, pH 7.0. Assay (100 μl or 200 μl final volume) contained 1 μM GTPγS and the indicated concentrations of nucleotide analogs. Ghosts were incubated at 30° C. for 5 min, and total [^3 H]inositol phosphates were quantitated after purification by anion exchange chromatography according to Harden et al. (supra) and Boyer et al. (supra).
(§1) Phospholipase C activity and muscle relaxation/contraction effects were assessed using the methods recited in Example 3. In FIGS. 10-12, which present the result of assays of phospholipase C activity in turkey erythrocyte membranes, the x-axis is marked in units of the log of the molar concentration of the putative P2Y receptor agonist tested and the y-axis is marked in units of the percentage of maximum production of [^3 H]-inositol phosphate generated. In FIG. 13, the x-axis is marked in units of the negative log of the molar concentration of applied putative P2Y receptor agonists and the y-axis is marked in units of the percentage relaxation of the 50 nM carbachol-induced contraction of guinea pig taenia coli. In FIG. 14, the x-axis is also marked in units of the negative log of the molar concentration of applied putative P2Y receptor agonists and the y-axis is marked in units of the percentage relaxation of the 1 μM noradrenalin-induced contraction of rabbit aorta endothelium. In FIGS. 15-16, the x-axis is marked in units of the negative log of the molar concentration of applied putative p^2X receptor agonists and the y-axis is marked in units of the percentage contraction relative to a standard dose of KCl (i.e., 60 mM), as assessed in guinea pig isolated urinary bladder detrussor muscle (FIG. 15) and guinea pig isolated vas deferens (FIG. 16).

In assay [2] the target is T2, adenylyl cyclase linked P2Y receptor (C6 rat glioma cells) (Rattus norvegicus, UniProt Q9EPX4).
T2 construct: endogenous in cells; host or cells: C6 rat glioma cells
T2 sequence (Q9EPX4 whole entry): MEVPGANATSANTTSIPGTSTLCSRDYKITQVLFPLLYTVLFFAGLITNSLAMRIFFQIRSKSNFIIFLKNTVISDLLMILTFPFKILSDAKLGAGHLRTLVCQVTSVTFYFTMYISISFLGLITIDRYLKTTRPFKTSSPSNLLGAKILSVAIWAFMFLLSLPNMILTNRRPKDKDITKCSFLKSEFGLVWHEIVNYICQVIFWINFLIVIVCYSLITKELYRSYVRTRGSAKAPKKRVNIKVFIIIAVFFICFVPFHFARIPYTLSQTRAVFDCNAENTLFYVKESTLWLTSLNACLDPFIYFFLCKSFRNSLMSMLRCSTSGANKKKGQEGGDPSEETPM
As to the kind of experiment: Inhibition of adenylyl cyclase in C6 rat glioma cells. The class given is cell-based. Conditions: for IC50: C6 rat glioma cells, 10 μM isoproterenol, read-out: K0.5 values (in nM) for inhibition of adenylyl cyclase in C6 cells. The protocol:
This example illustrates the inhibition of adenylyl cyclase activity in C6 rat glioma cells, as a function of the presence of certain ATP analogs in the medium in which the C6 cells were cultured.
Cells were labelled by incubation for 2 hours in the presence of 1 to 2 mCi of tritiated adenine/ml in the medium. Cells were washed twice with HEPES (20 mM, pH 7.5)-buffered Eagle's medium and then preincubated for 10 minutes at 37° C. with fresh medium containing 200 μM 3-isobutyl-1-methylxanthine. Agonist incubations were initiated by the simultaneous addition of 10 μM isoproterenol and various concentrations of nucleotides. The reactions were stopped after 10 minutes of aspiration of the nucleotide-containing medium and addition of 1 ml of ice-cold 5% trichloroacetic acid.

Assay [3] concerns the target T3, P2Y receptor (taenia coli) (Cavia porcellus, UniProt P59902).
T3 construct: Relaxant responses mediated via P2Y receptors were examined in guinea pig taenia coli; from tissue; host or cells: guinea pig taenia coli (carbachol-contracted)
In words: Relaxation of carbachol-contracted guinea pig taenia coli. Conditions: for activity/potency in words, taenia coli: guinea pig taenia coli.
Excerpt: (§2) Muscular relaxation/contraction: Relaxant responses mediated via P2Y receptors were examined in guinea pig taenia coli, rabbit aorta, and rabbit mesenteric artery, as described by Hoyle et al. (Br. J. Pharmacol., 107, 367-374 (1992a)), Burnstock et al., (Br. J. Pharmacol., 90, 383-391 (1987a)), and Rubino et al., (Eur. J. Pharmacol., 212, 237-240 (1992)). Contractile responses mediated via P2X receptors were examined in the guinea pig urinary bladder and vas deferens, and rabbit saphenous artery, also using standard methods (see Hoyle et al., supra., 1992; Hoyle et al., Br. J. Pharmacol., 99, 617-621 (1990); and Burnstock et al., Br. J. Pharmacol., 90, 111-120 (1987b)).
Muscular relaxation assays were performed as recited in Example 3. […] All curves are the mean of two determinations except for 5'-ATP (n=38), 2-hexylthio-ATP (n=4), 2-(5-hexenyl)thio-ATP (n=3), and 2-(2-4-nitrophenylethyl)thio-AMP (n=5). […] The pD2 value for 2-methylthio-ATP is 8.0±0.15, as reported by Hoyle et al., in Receptor Data for Biological Experiments, (H. N. Doods and J. C. A. Van Meel, eds., 1992b) at pp. 54-61.
as §1

Assay [4] concerns P2Y receptor (aorta endothelium). In words: Relaxation of noradrenalin-contracted rabbit aorta. The settings on record: for relaxation pD2, aorta: rabbit aorta, log molar units; for activity/potency/selectivity in words, aorta: rabbit aorta endothelial P2Y receptor.
Assay [5] addresses P2Y receptor (mesenteric artery). As to the kind of experiment: Relaxation of rabbit mesenteric artery. Conditions: for relaxation pD2, mes. artery: log molar units.
Assay [6] deals with T4, P2X receptor (urinary bladder) (Cavia porcellus, UniProt A0A286XVA9).
T4 construct: guinea pig isolated urinary bladder detrussor muscle; from tissue; host or cells: guinea pig isolated urinary bladder detrusor muscle
As to the kind of experiment: Contraction of guinea pig isolated urinary bladder detrussor muscle. Conditions: guinea pig urinary bladder.

Assay [7] deals with T5, P2X receptor (saphenous artery) (Oryctolagus cuniculus, UniProt G1U3D6).
T5 construct: and rabbit saphenous artery; from tissue; host or cells: rabbit saphenous artery
T5 sequence (G1U3D6 1-399): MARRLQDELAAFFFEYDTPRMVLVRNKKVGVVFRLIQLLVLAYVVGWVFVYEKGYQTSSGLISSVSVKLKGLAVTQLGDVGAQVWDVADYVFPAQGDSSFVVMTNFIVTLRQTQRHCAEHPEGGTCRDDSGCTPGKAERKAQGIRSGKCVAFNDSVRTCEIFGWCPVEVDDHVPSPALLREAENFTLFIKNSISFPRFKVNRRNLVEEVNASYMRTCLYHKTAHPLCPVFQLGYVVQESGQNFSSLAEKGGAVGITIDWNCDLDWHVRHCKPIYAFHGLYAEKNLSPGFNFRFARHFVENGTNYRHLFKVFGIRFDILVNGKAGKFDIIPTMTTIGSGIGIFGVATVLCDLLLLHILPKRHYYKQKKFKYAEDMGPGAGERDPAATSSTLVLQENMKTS
In words: Contraction of rabbit saphenous artery. Conditions: rabbit saphenous artery.
Excerpt: as §2
^c For the saphenous artery, the percentages in brackets are response
at 10 μM relative to the contraction produced by 1 μM α,MeATP
ATP in this assay is very weak (EC50 =
1.78 mM). The highest concentrations of the analogues tested were 3-30

In assay [8] the target is T6, P2X receptor (vas deferens) (Cavia porcellus, UniProt A0A286XVA9).
T6 sequence (A0A286XVA9 1-399): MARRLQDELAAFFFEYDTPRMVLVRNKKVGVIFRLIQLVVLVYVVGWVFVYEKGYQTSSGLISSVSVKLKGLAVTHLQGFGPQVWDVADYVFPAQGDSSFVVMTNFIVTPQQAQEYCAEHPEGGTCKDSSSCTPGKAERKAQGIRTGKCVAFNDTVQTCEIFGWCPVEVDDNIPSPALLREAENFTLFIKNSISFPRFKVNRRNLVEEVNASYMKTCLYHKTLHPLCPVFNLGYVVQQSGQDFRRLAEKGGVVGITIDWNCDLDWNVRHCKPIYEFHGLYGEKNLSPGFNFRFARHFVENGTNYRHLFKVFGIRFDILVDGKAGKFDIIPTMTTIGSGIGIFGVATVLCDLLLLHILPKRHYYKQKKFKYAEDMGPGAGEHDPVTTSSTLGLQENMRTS
As to the kind of experiment: Contraction of guinea pig isolated vas deferens.

The mark [9] stands for this setting: mean ± S.E.M. for at least 2 determinations, read-out: phosphatidyl inositol metabolism (K0.5, nM) erythrocyte.

“And” between values parts separate entries of the source, which are not always exact repeats. Equal values may be shown once. “Also recorded” adds a separate entry of the source. Read-outs that look alike come from different tables or passages of the source. Bounds are passed on as bounds.

T1 sequence (P49652 whole entry): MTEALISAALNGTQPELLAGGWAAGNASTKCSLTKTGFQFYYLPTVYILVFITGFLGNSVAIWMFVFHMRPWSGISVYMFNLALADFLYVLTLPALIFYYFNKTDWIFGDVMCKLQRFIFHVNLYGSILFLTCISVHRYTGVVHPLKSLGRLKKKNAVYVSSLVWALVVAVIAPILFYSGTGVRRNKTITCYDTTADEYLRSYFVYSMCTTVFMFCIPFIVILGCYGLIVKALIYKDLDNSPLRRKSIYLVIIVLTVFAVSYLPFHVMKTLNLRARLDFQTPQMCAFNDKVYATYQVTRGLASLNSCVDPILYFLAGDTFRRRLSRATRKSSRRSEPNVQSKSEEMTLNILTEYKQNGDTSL
T3 sequence (P59902 whole entry): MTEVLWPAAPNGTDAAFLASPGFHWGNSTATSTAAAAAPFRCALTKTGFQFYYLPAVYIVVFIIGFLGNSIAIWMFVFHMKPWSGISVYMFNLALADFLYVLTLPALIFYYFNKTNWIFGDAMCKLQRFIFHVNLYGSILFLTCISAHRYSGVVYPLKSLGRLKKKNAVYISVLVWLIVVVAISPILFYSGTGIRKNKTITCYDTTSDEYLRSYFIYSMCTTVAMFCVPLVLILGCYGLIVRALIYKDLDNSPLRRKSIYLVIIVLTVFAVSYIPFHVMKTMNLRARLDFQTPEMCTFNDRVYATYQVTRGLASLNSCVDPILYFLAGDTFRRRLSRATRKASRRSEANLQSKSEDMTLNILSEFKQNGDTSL

Consider `C=CCCCCSc1nc(N)c2ncn([C@@H]3O[C@H](COP(=O)(O)OP(=O)(O)O)[C@@H](O)[C@H]3O)c2n1` [2-(5-Hexenyl)thio-ADP, 2-(5-hexenylthio)-adenosine 5'-diphosphate], for which the values for the EC50 in assay [1] (setting [9]), in assay [1] (read-out: K0.5) and in assay [3] were 6.8 ± 3 nM, 4 nM and 3.63 nM, respectively. The IC50 in assay [2] came to 0.07 ± 0.02 nM. For the same compound, the “selectivity for the adenylyl cyclase linked receptor, in words” value in assay [2] (versus phospholipase C linked receptor) is recorded as “approximately the same degree of selectivity”.

With `C=CCCCCSc1nc(N)c2ncn([C@@H]3O[C@H](COP(=O)(O)O)[C@@H](O)[C@H]3O)c2n1` [2-(5-Hexenyl)thio-AMP, 2-(5-hexenylthio)adenosine 5'-monophosphate], the “relaxation pD2, aorta” value in assay [4] was found to be 7.0. For the same compound, the “fold less potent than the corresponding triphosphate, turkey erythrocyte” value in assay [1] (relative to corresponding triphosphate) is listed as 33 -fold. For the same compound, the EC50 is 328 ± 43 nM in assay [1] (setting [9]) and 1000 nM in assay [3]. Also, in assay [5], the “relaxation pD2, mes. artery” value is reported as 6.3. Further, the IC50 in assay [2] is 2 ± 0.18 nM.

For the compound `C=CCCCCSc1nc(N)c2ncn([C@@H]3O[C@H](COP(=O)(O)OP(=O)(O)OP(=O)(O)O)[C@@H](O)[C@H]3O)c2n1` [2-(S-Hexenyl)thio-ATP, 2-(5-hexenylthio)adenosine 5'-triphosphate], the “activity/potency in words, turkey erythrocyte” value in assay [1] is on record as “at least two orders of magnitude more potent”. Besides, the EC50 in assay [1] (setting [9]) is 10 ± 4 nM; in assay [1] (read-out: K0.5) it was 5 to 30 nM and 10 nM; in assay [3], 12.6 nM. The “relaxation pD2, mes. artery” value in assay [5] was 7.0. The IC50 in assay [2] stood at 0.12 ± 0.06 nM. For the same compound, in assay [3], the “activity/potency in words, taenia coli” value is given as “significantly more potent than ATP itself, at least by one order of magnitude”.

Regarding `CCCCCCSc1nc(N)c2ncn([C@@H]3O[C@H](COP(=O)(O)OP(=O)(O)OP(=O)(O)O)[C@@H](O)[C@H]3O)c2n1` [2-Hexylthio-ATP, 2-hexylthio-ATP], the “relaxation pD2, aorta” value in assay [4] amounted to 6.7. In assay [1], the “activity/potency in words, turkey erythrocyte” value was “at least two orders of magnitude more potent”. Further, the EC50 in assay [1] (setting [9]) is 5 ± 1 nM; in assay [1] (read-out: K0.5), 5 to 30 nM; in assay [3], 31.6 nM. Moreover, the “relaxation pD2, mes. artery” value in assay [5] came to 6.7. The IC50 in assay [2] amounted to 0.03 ± 0.005 nM. Besides, the “selectivity for the adenylyl cyclase linked (C6 cell) receptor” value in assay [2] (versus phospholipase C linked turkey erythrocyte receptor) is reported as 170 -fold. Also, the “activity/potency in words, taenia coli” value in assay [3] is “significantly more potent than ATP itself, at least by one order of magnitude”.

As to `Nc1ncnc2c1ncn2[C@@H]1O[C@H](COP(=O)(O)OP(=O)(O)OP(=O)(O)O)[C@@H](NC(=O)CCc2ccc(O)cc2)[C@H]1O` [3'-[3-(p-Hydroxyphenyl)propionylamino]-3'-deoxyadenosine 5'-triphosphate], the results for the “activity/potency/selectivity in words, aorta” value in assay [4] (listed as 3'-[3-(4-hydroxyphenyl)-propionylamino]-3'-deoxy-ATP) and in assay [4] (listed as 3-(p-Hydroxyphenyl-propionylamino-3'-deoxy-ATP)) were “considerably more potent than ATP in the aorta” and “a high degree of selectivity for the aortic endothelial P2Y receptor”, respectively. Besides, the “activity/potency in words, turkey erythrocyte” value in assay [1] was “nearly inactive”. For the same compound, the EC50 in assay [1] (setting [9]) is > 100000 nM. In addition, in assay [5], the “activity/potency in words, mesenteric artery” value is “inactive in the mesenteric artery”. In addition, the “activity/potency in words, bladder” value in assay [6] is on record as “more or less as potent as ATP”. Moreover, in assay [3], the “activity/potency in words, taenia coli” value is “nearly inactive”. Besides, the “activity/potency in words, saphenous artery” value in assay [7] was “inactive in the saphenous artery”. In assay [8], the “activity/potency in words, vas deferens” value is reported as “more or less as potent as ATP”.

Regarding `O=c1[nH]c(=O)n([C@@H]2O[C@H](COP(=O)(O)OP(=O)(O)OP(=O)(O)O)[C@@H](O)[C@H]2O)cc1F` [5-F-UTP, 5-Fluorouridine 5'-triphosphate], in assay [4], the “activity/potency/selectivity in words, aorta” value is listed as “more potent than ATP” and the “relaxation pD2, aorta” value worked out at 6.0. Besides, the “activity/potency in words, turkey erythrocyte” value in assay [1] is “only a weak agonist”. Moreover, in assay [1] (setting [9]), the EC50 is > 100000 nM. Further, in assay [5], the “activity/potency in words, mesenteric artery” value is “inactive”. Further, the “activity/potency in words, bladder” value in assay [6] was “more potent than ATP; also recorded: as potent as or more potent than ATP in the bladder”. In assay [3], the “activity/potency in words, taenia coli” value is on record as “only a weak agonist”. In addition, the “activity/potency in words, saphenous artery” value in assay [7] was “inactive”. In addition, the “activity/potency in words, vas deferens” value in assay [8] is “inactive; also recorded: without effect in the vas deferens”.
